In patent US20250345392A1, “ANNEXIN A1 LIQUID PHARMACEUTICAL COMPOSITION” (ResoTher Pharma A/S, priority 2022, published 2025):
Read-outs that look alike come from different tables or passages of the source. Ends that are not written are not given here.

Columns and labels:
[1] = 14-day repeat IV dose toxicity study with toxicokinetic evaluation on Day 1 and 14 in dogs; format: in vivo, beagle dogs; conditions: dog, in vivo, iv, 10 mg/kg/day, IV 10 mg/kg/day, male, Day 14, read-out: Vz
Method: (§1) Peptide 1 in blood samples collected from animals used in the studies (rat and dog) has been measured by an LC-MS/MS method. Analysis of samples collected in the pharmacokinetic study in rats was performed prior to validation of the method. Prior to analysis of samples from the GLP toxicology studies, the method was validated according to GLP to ensure that it is selective, accurate, reproducible, and able to produce reliable results. The method was validated over the range from 0.075 to 25 μg/mL Peptide 1.
In the 14-day intravenous toxicity study in beagle dogs (see study description below), samples were collected from 3 male and 3 female animals per group dosed at 0 (Control), 1, 3 or 10 mg/kg/day at 2, 5, 10, 20 and 40 minutes after dosing on Days 1 and 14. Samples were analysed for levels of Peptide 1.

[2] = 14-day repeat dose IV toxicity study with toxicokinetic evaluation on Day 1 and Day 14 in rats; format: in vivo, Wistar rats; conditions: rat; for C0 / AUC(0-inf) / half-life / clearance / Vd: in vivo
Method: as §1
In the 14-day intravenous toxicity study in Wistar rats (see study description below), samples were collected from 3 male and 3 female animals per group dosed at 0 (Control), 1, 3 or 10 mg/kg/day at 2, 5, 10, 20 and 40 minutes after dosing on Days 1 and 14. Samples were analysed for levels of Peptide 1.

[3] = iv, 1 mg/kg/day, IV 1.0 mg/kg/day, female, Day 1
[4] = iv, 1 mg/kg/day, IV 1.0 mg/kg/day, female, Day 14
[5] = iv, 1 mg/kg/day, IV 1.0 mg/kg/day, male, Day 1
[6] = iv, 1 mg/kg/day, IV 1.0 mg/kg/day, male, Day 14
[7] = iv, 3 mg/kg/day, IV 3.0 mg/kg/day, female, Day 1
[8] = iv, 3 mg/kg/day, IV 3.0 mg/kg/day, female, Day 14
[9] = iv, 3 mg/kg/day, IV 3.0 mg/kg/day, male, Day 1
[10] = iv, 3 mg/kg/day, IV 3.0 mg/kg/day, male, Day 14
[11] = iv, 10 mg/kg/day, IV 10 mg/kg/day, female, Day 1
[12] = iv, 10 mg/kg/day, IV 10 mg/kg/day, female, Day 14
[13] = iv, 10 mg/kg/day, IV 10 mg/kg/day, male, Day 1
[14] = iv, 10 mg/kg/day, IV 10 mg/kg/day, male, Day 14

Q: For “AMVSEFLKQAWFIENEEQEYVQTLKSSKGGPGSAVSPYPTFNPSSDV-NH2 [Peptide 1]”, which Vd [1] is on record?
A: 0.316 L/kg

Q: And the “exposure (C(0) and AUCinf) versus dose” value ([2]; from 1 mg/kg to 10 mg/kg)?
A: increase proportional to dose level

Q: What about the C0 ([2]; 1 mg/kg, Group 2 (1 mg/kg), range over sexes and Days 1 and 14) of the same substance?
A: 9960 to 11900 ng/mL

Q: What about the AUC(0-inf) ([2]; 1 mg/kg, Group 2 (1 mg/kg), range over sexes and Days 1 and 14, read-out: AUCinf) of the same substance?
A: 918 to 1030 ng·h/mL

Q: What about the C0 ([2]; 3 mg/kg, Group 3 (3 mg/kg), range over sexes and Days 1 and 14) of the same substance?
A: 23000 to 41900 ng/mL

Q: And the AUC(0-inf) ([2]; 3 mg/kg, Group 3 (3 mg/kg), range over sexes and Days 1 and 14, read-out: AUCinf)?
A: 2280 to 3380 ng·h/mL

Q: What about the C0 ([2]; 10 mg/kg, Group 4 (10 mg/kg), range over sexes and Days 1 and 14) of the same substance?
A: 92300 to 138000 ng/mL

Q: What about the AUC(0-inf) ([2]; 10 mg/kg, Group 4 (10 mg/kg), range over sexes and Days 1 and 14, read-out: AUCinf) of the same substance?
A: 9130 to 10100 ng·h/mL

Q: What about the half-life ([2]; all groups, read-out: elimination half-life) of the same substance?
A: 7 to 8 min

Q: And the C0 [2, 3]?
A: 11900 ng/mL

Q: What about the clearance [2, 3] of the same substance?
A: 18.1 mL/min/kg

Q: And the AUC(0-inf) ([2]; iv, 1 mg/kg/day, IV 1.0 mg/kg/day, female, Day 1, read-out: AUC0-∞ (converted))?
A: 918 ng·h/mL

Q: And the half-life ([2]; iv, 1 mg/kg/day, IV 1.0 mg/kg/day, female, Day 1, read-out: T1/2)?
A: 7.33 min

Q: What about the Vd ([2]; iv, 1 mg/kg/day, IV 1.0 mg/kg/day, female, Day 1, read-out: Vz) of the same substance?
A: 0.192 L/kg

Q: And the C0 [2, 4]?
A: 10900 ng/mL

Q: What about the clearance [2, 4] of the same substance?
A: 16.2 mL/min/kg

Q: What about the AUC(0-inf) ([2]; iv, 1 mg/kg/day, IV 1.0 mg/kg/day, female, Day 14, read-out: AUC0-∞ (converted)) of the same substance?
A: 1030 ng·h/mL

Q: And the half-life ([2]; iv, 1 mg/kg/day, IV 1.0 mg/kg/day, female, Day 14, read-out: T1/2)?
A: 7.11 min

Q: And the Vd ([2]; iv, 1 mg/kg/day, IV 1.0 mg/kg/day, female, Day 14, read-out: Vz)?
A: 0.167 L/kg

Q: What about the C0 [2, 5] of the same substance?
A: 9960 ng/mL

Q: And the clearance [2, 5]?
A: 18 mL/min/kg

Q: And the AUC(0-inf) ([2]; iv, 1 mg/kg/day, IV 1.0 mg/kg/day, male, Day 1, read-out: AUC0-∞ (converted))?
A: 927 ng·h/mL

Q: And the half-life ([2]; iv, 1 mg/kg/day, IV 1.0 mg/kg/day, male, Day 1, read-out: T1/2)?
A: 8.4 min

Q: What about the Vd ([2]; iv, 1 mg/kg/day, IV 1.0 mg/kg/day, male, Day 1, read-out: Vz) of the same substance?
A: 0.218 L/kg

Q: What about the C0 [2, 6] of the same substance?
A: 10300 ng/mL

Q: And the clearance [2, 6]?
A: 17.2 mL/min/kg

Q: What about the AUC(0-inf) ([2]; iv, 1 mg/kg/day, IV 1.0 mg/kg/day, male, Day 14, read-out: AUC0-∞ (converted)) of the same substance?
A: 967 ng·h/mL

Q: And the half-life ([2]; iv, 1 mg/kg/day, IV 1.0 mg/kg/day, male, Day 14, read-out: T1/2)?
A: 7.66 min

Q: And the Vd ([2]; iv, 1 mg/kg/day, IV 1.0 mg/kg/day, male, Day 14, read-out: Vz)?
A: 0.19 L/kg

Q: And the C0 [2, 7]?
A: 30600 ng/mL

Q: And the clearance [2, 7]?
A: 17.4 mL/min/kg

Q: And the AUC(0-inf) ([2]; iv, 3 mg/kg/day, IV 3.0 mg/kg/day, female, Day 1, read-out: AUC0-∞ (converted))?
A: 2870 ng·h/mL

Q: What about the half-life ([2]; iv, 3 mg/kg/day, IV 3.0 mg/kg/day, female, Day 1, read-out: T1/2) of the same substance?
A: 8 min

Q: What about the Vd ([2]; iv, 3 mg/kg/day, IV 3.0 mg/kg/day, female, Day 1, read-out: Vz) of the same substance?
A: 0.201 L/kg

Q: What about the C0 [2, 8] of the same substance?
A: 41900 ng/mL

Q: What about the clearance [2, 8] of the same substance?
A: 14.8 mL/min/kg

Q: What about the AUC(0-inf) ([2]; iv, 3 mg/kg/day, IV 3.0 mg/kg/day, female, Day 14, read-out: AUC0-∞ (converted)) of the same substance?
A: 3380 ng·h/mL

Q: And the half-life ([2]; iv, 3 mg/kg/day, IV 3.0 mg/kg/day, female, Day 14, read-out: T1/2)?
A: 6.85 min

Q: What about the Vd ([2]; iv, 3 mg/kg/day, IV 3.0 mg/kg/day, female, Day 14, read-out: Vz) of the same substance?
A: 0.146 L/kg

Q: What about the C0 [2, 9] of the same substance?
A: 23000 ng/mL

Q: And the clearance [2, 9]?
A: 21.9 mL/min/kg

Q: What about the AUC(0-inf) ([2]; iv, 3 mg/kg/day, IV 3.0 mg/kg/day, male, Day 1, read-out: AUC0-∞ (converted)) of the same substance?
A: 2280 ng·h/mL

Q: What about the half-life ([2]; iv, 3 mg/kg/day, IV 3.0 mg/kg/day, male, Day 1, read-out: T1/2) of the same substance?
A: 7 min

Q: What about the Vd ([2]; iv, 3 mg/kg/day, IV 3.0 mg/kg/day, male, Day 1, read-out: Vz) of the same substance?
A: 0.221 L/kg

Q: What about the C0 [2, 10] of the same substance?
A: 36700 ng/mL

Q: And the clearance [2, 10]?
A: 18.7 mL/min/kg

Q: What about the AUC(0-inf) ([2]; iv, 3 mg/kg/day, IV 3.0 mg/kg/day, male, Day 14, read-out: AUC0-∞ (converted)) of the same substance?
A: 2680 ng·h/mL

Q: What about the half-life ([2]; iv, 3 mg/kg/day, IV 3.0 mg/kg/day, male, Day 14, read-out: T1/2) of the same substance?
A: 6.67 min

Q: What about the Vd ([2]; iv, 3 mg/kg/day, IV 3.0 mg/kg/day, male, Day 14, read-out: Vz) of the same substance?
A: 0.18 L/kg

Q: And the C0 [2, 11]?
A: 127000 ng/mL

Q: What about the clearance [2, 11] of the same substance?
A: 17.4 mL/min/kg

Q: And the AUC(0-inf) ([2]; iv, 10 mg/kg/day, IV 10 mg/kg/day, female, Day 1, read-out: AUC0-∞ (converted))?
A: 9570 ng·h/mL

Q: And the half-life ([2]; iv, 10 mg/kg/day, IV 10 mg/kg/day, female, Day 1, read-out: T1/2)?
A: 7.16 min

Q: What about the Vd ([2]; iv, 10 mg/kg/day, IV 10 mg/kg/day, female, Day 1, read-out: Vz) of the same substance?
A: 0.18 L/kg

Q: And the C0 [2, 12]?
A: 138000 ng/mL

Q: What about the clearance [2, 12] of the same substance?
A: 16.5 mL/min/kg

Q: And the AUC(0-inf) ([2]; iv, 10 mg/kg/day, IV 10 mg/kg/day, female, Day 14, read-out: AUC0-∞ (converted))?
A: 10100 ng·h/mL

Q: What about the half-life ([2]; iv, 10 mg/kg/day, IV 10 mg/kg/day, female, Day 14, read-out: T1/2) of the same substance?
A: 7.04 min

Q: And the Vd ([2]; iv, 10 mg/kg/day, IV 10 mg/kg/day, female, Day 14, read-out: Vz)?
A: 0.168 L/kg

Q: What about the C0 [2, 13] of the same substance?
A: 104000 ng/mL

Q: And the clearance [2, 13]?
A: 18.1 mL/min/kg

Q: What about the AUC(0-inf) ([2]; iv, 10 mg/kg/day, IV 10 mg/kg/day, male, Day 1, read-out: AUC0-∞ (converted)) of the same substance?
A: 9200 ng·h/mL

Q: And the half-life ([2]; iv, 10 mg/kg/day, IV 10 mg/kg/day, male, Day 1, read-out: T1/2)?
A: 7.8 min

Q: And the Vd ([2]; iv, 10 mg/kg/day, IV 10 mg/kg/day, male, Day 1, read-out: Vz)?
A: 0.204 L/kg

Q: What about the C0 [2, 14] of the same substance?
A: 92300 ng/mL

Q: And the clearance [2, 14]?
A: 18.2 mL/min/kg

Q: What about the AUC(0-inf) ([2]; iv, 10 mg/kg/day, IV 10 mg/kg/day, male, Day 14, read-out: AUC0-∞ (converted)) of the same substance?
A: 9130 ng·h/mL

Q: What about the half-life ([2]; iv, 10 mg/kg/day, IV 10 mg/kg/day, male, Day 14, read-out: T1/2) of the same substance?
A: 7.31 min

Q: And the Vd ([2]; iv, 10 mg/kg/day, IV 10 mg/kg/day, male, Day 14, read-out: Vz)?
A: 0.192 L/kg
